# Laboratory results taken from patent publication US11180474B2 (BRISTOL-MYERS SQUIBB COMPANY, priority 2016, dated 2021).
# Where a name gives a salt, the structure may show the parent alone.
# Target: T1, human TLR9 (Homo sapiens, UniProt Q9NR96)
# T1 construct: host or cells: HEK-Blue cells
# T1 sequence (Q9NR96 26-1032): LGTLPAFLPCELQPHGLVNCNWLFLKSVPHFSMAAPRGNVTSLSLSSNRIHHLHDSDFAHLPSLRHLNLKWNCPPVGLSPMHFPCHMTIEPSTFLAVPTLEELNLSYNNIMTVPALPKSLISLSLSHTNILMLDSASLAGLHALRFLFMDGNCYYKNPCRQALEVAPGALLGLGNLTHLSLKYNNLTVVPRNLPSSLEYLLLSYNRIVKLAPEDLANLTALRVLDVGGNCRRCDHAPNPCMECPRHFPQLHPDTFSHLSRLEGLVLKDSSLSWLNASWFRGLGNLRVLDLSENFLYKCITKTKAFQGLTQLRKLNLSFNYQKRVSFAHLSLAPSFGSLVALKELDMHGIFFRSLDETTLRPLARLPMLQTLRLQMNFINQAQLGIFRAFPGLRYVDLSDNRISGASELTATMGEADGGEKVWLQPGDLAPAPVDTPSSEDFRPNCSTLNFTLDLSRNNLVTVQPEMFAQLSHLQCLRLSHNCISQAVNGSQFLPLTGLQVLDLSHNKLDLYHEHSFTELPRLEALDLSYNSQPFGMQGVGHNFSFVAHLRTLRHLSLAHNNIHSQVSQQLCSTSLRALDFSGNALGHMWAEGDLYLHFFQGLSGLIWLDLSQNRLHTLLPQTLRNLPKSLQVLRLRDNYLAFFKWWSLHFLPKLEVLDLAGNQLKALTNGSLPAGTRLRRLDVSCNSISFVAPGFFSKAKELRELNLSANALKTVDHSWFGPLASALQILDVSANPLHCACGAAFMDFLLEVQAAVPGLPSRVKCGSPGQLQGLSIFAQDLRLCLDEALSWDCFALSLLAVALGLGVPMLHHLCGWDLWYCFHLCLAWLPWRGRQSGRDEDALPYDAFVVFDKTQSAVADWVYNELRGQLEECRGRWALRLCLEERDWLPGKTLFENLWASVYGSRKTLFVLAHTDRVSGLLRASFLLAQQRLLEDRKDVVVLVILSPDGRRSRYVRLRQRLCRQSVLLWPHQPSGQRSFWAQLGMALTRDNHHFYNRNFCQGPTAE
# Assay: TLR9 inhibition reporter assay (HEK-Blue cells, SEAP reporter, ODN2006 stimulation)
# Format: cell-based
# Details: HEK-Blue cells overexpressing human TLR9, ODN2006 5 nM
# How it was run: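 Screening used HEK-Blue cells overexpressing one human TLR (7, 8 or 9) and an IFN-β minimal promoter–NF-κB/AP-1 SEAP construct. Stimulation lasted 22 h at 37 °C with receptor-specific agonist: gardiquimod, R848 or ODN2006 at 7.5 μM, 15.9 μM and 5 nM.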
row,IC50,Structure (SMILES)
1,2000 nM,"CCN(CC)C(=O)CCN(C)CC(=O)N1CCC(c2ccc3[nH]c(-c4ccc(OC)c(OC)c4)c(C(C)C)c3c2)CC1 [Example 204, 3-((2-(4-(2-(3,4-dimethoxyphenyl)-3-isopropyl-1H-indol-5-yl)piperidin-1-yl)-2-oxoethyl)(methyl)amino)-N,N-diethylpropanamide]"
2,966 nM,"COc1ccc(-c2[nH]c3cc(C)c(C4CCNCC4)cc3c2C(C)C)cc1OC [Example 205, 2-(3,4-dimethoxyphenyl)-3-isopropyl-6-methyl-5-(piperidin-4-yl)-1H-indole]"
3,1000 nM,"COc1ccc(-c2[nH]c3cc(C)c(C4CCN(C5CCN(C(C)C)CC5)CC4)cc3c2C(C)C)cc1OC [Example 206, 2-(3,4-dimethoxyphenyl)-3-isopropyl-5-(1′-isopropyl-[1,4′-bipiperidin]-4-yl)-6-methyl-1H-indole di trifluoroacetic acid]"
4,2290 nM,"CNCCN1CCC(c2cc3c(C(C)C)c(-c4ccc(OC)c(OC)c4)[nH]c3cc2C)CC1 [Example 207, 2-(4-(2-(3,4-dimethoxyphenyl)-3-isopropyl-6-methyl-1H-indol-5-yl)piperidin-1-yl)-N-methylethan-1-amine]"
5,374 nM,"CNCCN1CCC(c2cc3c(C(C)C)c(-c4ccc(OC)c(OC)c4)[nH]c3cc2F)CC1 [Example 208, 2-(4-(2-(3,4-dimethoxyphenyl)-6-fluoro-3-isopropyl-1H-indol-5-yl)piperidin-1-yl)-N-methylethan-1-amine]"
6,1930 nM,"COc1ccc(-c2[nH]c3ccc(C4CCN(C(=O)CNCC(C)O)CC4)cc3c2C(C)C)cc1OC (stereo not drawn) [Example 210, 1-(4-(2-(3,4-dimethoxyphenyl)-3-isopropyl-1H-indol-5-yl)piperidin-1-yl)-2-((2-hydroxypropyl)amino)ethan-1-one]"
7,990 nM,"COc1ccc(-c2[nH]c3ccc(C4CCN(C(=O)CN5CCC(N6CCCCC6)CC5)CC4)cc3c2C(C)C)cc1OC [Example 211, 2-([1,4′-bipiperidin]-1′-yl)-1-(4-(2-(3,4-dimethoxyphenyl)-3-isopropyl-1H-indol-5-yl)piperidin-1-yl)ethan-1-one]"
8,1190 nM,"COc1ccc(-c2[nH]c3ccc(C4CCN(C(=O)CNCCO)CC4)cc3c2C(C)C)cc1OC [Example 212, 1-(4-(2-(3,4-dimethoxyphenyl)-3-isopropyl-1H-indol-5-yl)piperidin-1-yl)-2-((2-hydroxyethyl)amino)ethan-1-one]"
9,2070 nM,"COc1ccc(-c2[nH]c3ccc(C4CCN(C(=O)CNC5(CO)CCCC5)CC4)cc3c2C(C)C)cc1OC [Example 213, 1-(4-(2-(3,4-dimethoxyphenyl)-3-isopropyl-1H-indol-5-yl)piperidin-1-yl)-2-((1-(hydroxymethyl)cyclopentyl)amino)ethan-1-one]"
10,≥ 50000 nM,"COc1ccc(-c2[nH]c3ccc(C4CCN(C(=O)CNCC#N)CC4)cc3c2C(C)C)cc1OC [Example 214, 2-((2-(4-(2-(3,4-dimethoxyphenyl)-3-isopropyl-1H-indol-5-yl)piperidin-1-yl)-2-oxoethyl)amino) acetonitrile]"
11,2020 nM,"COc1ccc(-c2[nH]c3ccc(C4CCN(C(=O)CNC5CCC(N(C)C)CC5)CC4)cc3c2C(C)C)cc1OC (stereo not drawn) [Example 215, 1-(4-(2-(3,4-dimethoxyphenyl)-3-isopropyl-1H-indol-5-yl)piperidin-1-yl)-2-((4-(dimethylamino)cyclohexyl)amino)ethan-1-one]"
12,2130 nM,"COc1ccc(-c2[nH]c3ccc(C4CCN(C(=O)CNC56CC7CC(CC(C7)C5)C6)CC4)cc3c2C(C)C)cc1OC [Example 217, 2-(((3s,5s,7s)-adamantan-1-yl)amino)-1-(4-(2-(3,4-dimethoxyphenyl)-3-isopropyl-1H-indol-5-yl)piperidin-1-yl)ethan-1-one]"
13,1280 nM,"COc1ccc(-c2[nH]c3ccc(C4CCN(C(=O)CNC56CC7CC(CC(O)(C7)C5)C6)CC4)cc3c2C(C)C)cc1OC [Example 218, 1-(4-(2-(3,4-dimethoxyphenyl)-3-isopropyl-1H-indol-5-yl)piperidin-1-yl)-2-(((1r,3s,5R,7S)-3-hydroxyadamantan-1-yl)amino)ethan-1-one]"
14,2100 nM,"COc1ccc(-c2[nH]c3ccc(C4CCN(C(=O)CNCC(C)(C)CO)CC4)cc3c2C(C)C)cc1OC [Example 219, 1-(4-(2-(3,4-dimethoxyphenyl)-3-isopropyl-1H-indol-5-yl)piperidin-1-yl)-2-((3-hydroxy-2,2-dimethylpropyl)amino)ethan-1-one]"
15,5580 nM,"COc1ccc(-c2[nH]c3ccc(C4CCN(C(=O)CNC(CO)CO)CC4)cc3c2C(C)C)cc1OC [Example 220, 2-((1,3-dihydroxypropan-2-yl)amino)-1-(4-(2-(3,4-dimethoxyphenyl)-3-isopropyl-1H-indol-5-yl)piperidin-1-yl)ethan-1-one]"

# The next lines start with the compound.
row,Structure (SMILES),IC50
1,"CCc1c(-c2ccc(OC)c(OC)c2)[nH]c2c(F)cc(C3CCNCC3)cc12 [Example 189, 2-(3,4-dimethoxyphenyl)-3-ethyl-7-fluoro-5-(piperidin-4-yl)-1H-indole]",1150 nM
2,"CCc1c(-c2ccc(OC)c(OC)c2)[nH]c2c(F)cc(C3CCN(C4CCN(CC(C)C)CC4)CC3)cc12 [Example 190, 2-(3,4-dimethoxyphenyl)-3-ethyl-7-fluoro-5-(1′-isobutyl-[1,4′-bipiperidin]-4-yl)-1H-indole]",280 nM
3,"CCc1c(-c2ccc(OC)c(OC)c2)[nH]c2c(F)cc(C3CCN(CCNC)CC3)cc12 [Example 191, 2-(4-(2-(3,4-dimethoxyphenyl)-3-ethyl-7-fluoro-1H-indol-5-yl)piperidin-1-yl)-N-methylethan-1-amine]",1220 nM
4,"CCc1c(-c2ccc(OC)c(OC)c2)[nH]c2cc(OC)c(C3CCN(C4CCN(C(C)C)CC4)CC3)cc12 [Example 192, 2-(3,4-dimethoxyphenyl)-3-ethyl-5-(1′-isopropyl-[1,4′-bipiperidin]-4-yl)-6-methoxy-1H-indole]",260 nM
5,"COc1ccc(-c2[nH]c3ccc(C4CCNCC4)cc3c2C(C)C)cc1OC [Example 194, 2-(3,4-dimethoxyphenyl)-3-isopropyl-5-(piperidin-4-yl)-1H-indole hydrochloride]",5010 nM
6,"COc1ccc(-c2[nH]c3ccc(C4CCN(C5CCNCC5)CC4)cc3c2C(C)C)cc1OC [Example 197, 5-([1,4′-bipiperidin]-4-yl)-2-(3,4-dimethoxyphenyl)-3-isopropyl-1H-indole dihydrochloride]",653 nM
7,"COc1ccc(-c2[nH]c3ccc(C4CCN(C5CCN(CC6CC6)CC5)CC4)cc3c2C(C)C)cc1OC [Example 198, 5-(1′-(cyclopropylmethyl)-[1,4′-bipiperidin]-4-yl)-2-(3,4-dimethoxyphenyl)-3-isopropyl-1H-indole di trifluoroacetic acid]",490 nM
8,"COc1ccc(-c2[nH]c3ccc(C4CCN(C5CCN(CC(C)C)CC5)CC4)cc3c2C(C)C)cc1OC [Example 199, 2-(3,4-dimethoxyphenyl)-5-(1′-isobutyl-[1,4′-bipiperidin]-4-yl)-3-isopropyl-1H-indole]",257 nM
9,"COc1ccc(-c2[nH]c3ccc(C4CCN(C5CCN(C)CC5)CC4)cc3c2C(C)C)cc1OC [Example 200, 2-(3,4-dimethoxyphenyl)-3-isopropyl-5-(1′-methyl-[1,4′-bipiperidin]-4-yl)-1H-indole]",1260 nM
10,"COc1ccc(-c2[nH]c3ccc(C4CCN(C5CCN(C(C)C)CC5)CC4)cc3c2C(C)C)cc1OC [Example 201, 2-(3,4-dimethoxyphenyl)-3-isopropyl-5-(1′-isopropyl-[1,4′-bipiperidin]-4-yl)-1H-indole]",650 nM
11,"COc1ccc(-c2[nH]c3ccc(C4CCN(C5CCN(C6CCCC6)CC5)CC4)cc3c2C(C)C)cc1OC [Example 202, 5-(1′-cyclopentyl-[1,4′-bipiperidin]-4-yl)-2-(3,4-dimethoxyphenyl)-3-isopropyl-1H-indole]",340 nM
12,"CCN(CC)C(=O)CN(C)CC(=O)N1CCC(c2ccc3[nH]c(-c4ccc(OC)c(OC)c4)c(C(C)C)c3c2)CC1 [Example 203, 2-((2-(4-(2-(3,4-dimethoxyphenyl)-3-isopropyl-1H-indol-5-yl)piperidin-1-yl)-2-oxoethyl)(methyl)amino)-N,N-diethylacetamide, TFA]",6660 nM
